Assay type in all cases: cell-based
Assay [1] has as its system Acinetobacter baumannii T6474. Nature of the assay: Bacterial growth minimal inhibitory concentration (microdilution, CLSI M7-A7). The settings on record: multiply-resistant strain (in particular quinolone-resistant), cation-adjusted Mueller-Hinton Broth; for MIC: Acinetobacter baumannii, T6474. Summed up: (§1)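 Broth microdilution in cation-adjusted Mueller-Hinton broth per CLSI M7-A7, with MICs in mg/L. K. pneumoniae A-651 and A. baumannii T6474 are multiply resistant, including to quinolones. E. coli ATCC25922 and P. aeruginosa ATCC27853 are quinolone-sensitive.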
In general terms: Broth dilution looks for growth in wells or tubes with falling amounts of substance.

A further assay deals with E. coli ATCC25922. The assay is described as above. The note with it: quinolone-sensitive strain, cation-adjusted Mueller-Hinton Broth; for MIC: Escherichia coli, ATCC25922. The method in brief:
as §1

In another assay the test system is P. aeruginosa ATCC27853. Described as above. The note with it: quinolone-sensitive strain, cation-adjusted Mueller-Hinton Broth; for MIC: Pseudomonas aeruginosa, ATCC27853. Summed up:
as §1

Another assay has as its system K. pneumoniae A-651. Described as above. The settings on record: multiply-resistant strain (in particular quinolone-resistant), cation-adjusted Mueller-Hinton Broth; for MIC: Klebsiella pneumoniae, A651. Summed up:
as §1

Another assay concerns wild-type E. coli A-1261. The experiment in a line: MIC against wild-type E. coli A-1261 with or without alkaline phosphatase or esterase. The settings on record: Escherichia coli. As for the experimental part: Minimal Inhibitory Concentrations (MICs; mg/L) were determined in cation-adjusted Mueller-Hinton Broth by a microdilution method following the description given in “Methods for Dilution Antimicrobial Susceptibility Tests for Bacteria that Grow Aerobically”, Approved standard, 7th ed., Clinical and Laboratory Standards Institute (CLSI) Document M7-A7, Wayne, Pa., USA (2006). The compounds of Examples 48 and 49 were tested against wild-type E. coli A-1261 in the absence of alkaline phosphatase or esterase, in the presence of an alkaline phosphatase and in the presence of an esterase. The corresponding antibacterial test results are given in Table 2 hereafter (MICs in mg/L).

Setting [2] is: read-out: MIC for E. coli A-1261 In the absence of alkaline phosphatase or esterase.
Setting [3] is: read-out: MIC for E. coli A-1261 In the presence of an alkaline phosphatase (2 i.U./mL).
[4] abbreviates: read-out: MIC for E. coli A-1261 In the presence of an esterase (10 i.U./mL).

≈ marks a conversion by molar mass, not a printed value. Where two headings read alike, the source gives them in different places.

With `C[C@@](CCn1ncc2c(F)c(C#CC#CC3(CO)CC3)ccc21)(C(=O)NO)S(C)(=O)=O` [Example 39, (R)-4-(4-fluoro-5-((1-(hydroxymethyl)cyclopropyl)buta-1,3-diyn-1-yl)-1H-indazol-1-yl)-N-hydroxy-2-methyl-2-(methylsulfonyl)butanamide], the MIC in assay [1] came to 32 µg/mL (≈ 71.5 µM); in the assay on E. coli ATCC25922, 0.25 µg/mL (≈ 0.559 µM); against P. aeruginosa ATCC27853, 2 µg/mL (≈ 4.47 µM); against K. pneumoniae A-651 it was 0.5 µg/mL (≈ 1.12 µM).
Regarding `C[C@@](CCn1ncc2c(F)c(C#Cc3ccc(C4(CO)COC4)cc3)ccc21)(C(=O)NO)S(C)(=O)=O` [Example 40, (R)-4-(4-fluoro-5-((4-(3-(hydroxymethyl)oxetan-3-yl)phenyl)ethynyl)-1H-indazol-1-yl)-N-hydroxy-2-methyl-2-(methylsulfonyl)butanamide], the MIC in assay [1] was 0.5 µg/mL (≈ 0.97 µM); against E. coli ATCC25922 it was 0.5 µg/mL (≈ 0.97 µM); against P. aeruginosa ATCC27853 it was 4 µg/mL (≈ 7.76 µM); in the assay on K. pneumoniae A-651, 1 µg/mL (≈ 1.94 µM).
Consider `C[C@@](CCn1ncc2cc(C#CC#C[C@@H]3C[C@H]3CO)ccc21)(C(=O)NO)S(C)(=O)=O` [Example 42, (R)—N-hydroxy-4-(5-(((1R,2R)-2-(hydroxymethyl)cyclopropyl)buta-1,3-diyn-1-yl)-1H-indazol-1-yl)-2-methyl-2-(methylsulfonyl)butanamide], for which the MIC in assay [1] was 32 µg/mL (≈ 74.5 µM); against E. coli ATCC25922, at most 0.063 µg/mL; against P. aeruginosa ATCC27853, 0.5 µg/mL (≈ 1.16 µM); against K. pneumoniae A-651 it was 0.25 µg/mL (≈ 0.582 µM).
For `C[C@@](CCn1ccc2cc(C#Cc3ccc(CO)cc3F)ccc21)(C(=O)NO)S(C)(=O)=O` [Example 43, (R)-4-(5-((2-fluoro-4-(hydroxymethyl)phenyl)ethynyl)-1H-indol-1-yl)-N-hydroxy-2-methyl-2-(methylsulfonyl)butanamide], in that order: 16 µg/mL (≈ 34.9 µM), 0.5 µg/mL (≈ 1.09 µM), 1 µg/mL (≈ 2.18 µM) and 0.5 µg/mL (≈ 1.09 µM).
For `C[C@@](CCn1ccc2cc(C#Cc3ccc([C@@H](O)CO)cc3)ccc21)(C(=O)NO)S(C)(=O)=O` [Example 44, (R)-4-(5-((4-((R)-1,2-dihydroxyethyl)phenyl)ethynyl)-1H-indol-1-yl)-N-hydroxy-2-methyl-2-(methylsulfonyl)butanamide], in that order: 8 µg/mL (≈ 17 µM), 0.125 µg/mL (≈ 0.266 µM), 2 µg/mL (≈ 4.25 µM) and 0.25 µg/mL (≈ 0.531 µM).
Regarding `C[C@@](CCn1ccc2cc(C#Cc3ccc(CCO)cc3)ccc21)(C(=O)NO)S(C)(=O)=O` [Example 45, (R)—N-hydroxy-4-(5-((4-(2-hydroxyethyl)phenyl)ethynyl)-1H-indol-1-yl)-2-methyl-2-(methylsulfonyl)butanamide], the MIC in assay [1] was 8 µg/mL (≈ 17.6 µM); against E. coli ATCC25922 it was at most 0.063 µg/mL; with P. aeruginosa ATCC27853 it was 1 µg/mL (≈ 2.2 µM); against K. pneumoniae A-651, 0.25 µg/mL (≈ 0.55 µM).
As to `C[C@@](CCn1ncc2cc(C#CC#C[C@H]3C[C@@H]3CO)c(F)cc21)(C(=O)NO)S(C)(=O)=O` [Example 46, (R)-4-(6-fluoro-5-(((1S,2S)-2-(hydroxymethyl)cyclopropyl)buta-1,3-diyn-1-yl)-1H-indazol-1-yl)-N-hydroxy-2-methyl-2-(methylsulfonyl)butanamide], the MIC in assay [1] was above 32 µg/mL; against E. coli ATCC25922, at most 0.063 µg/mL; in the assay with P. aeruginosa ATCC27853, 1 µg/mL (≈ 2.23 µM); in the assay with K. pneumoniae A-651 it was 0.125 µg/mL (≈ 0.279 µM).
For `C[C@@](CCn1ncc2cc(C#Cc3ccc(CCO)cc3)c(F)cc21)(C(=O)NO)S(C)(=O)=O` [Example 47, (R)-4-(6-fluoro-5-((4-(2-hydroxyethyl)phenyl)ethynyl)-1H-indazol-1-yl)-N-hydroxy-2-methyl-2-(methylsulfonyl)butanamide], in that order: 0.25 µg/mL (≈ 0.528 µM), at most 0.063 µg/mL, 2 µg/mL (≈ 4.22 µM) and 0.25 µg/mL (≈ 0.528 µM).
Turning to `C[C@@](CCn1ncc2cc(C#Cc3ccc(C4(COP(=O)(O)O)CC4)cc3)ccc21)(C(=O)NO)S(C)(=O)=O` [Example 48, (R)-(1-(4-((1-(4-(hydroxyamino)-3-methyl-3-(methylsulfonyl)-4-oxobutyl)-1H-indazol-5-yl)ethynyl)phenyl)cyclopropyl)methyl dihydrogen phosphate], the MIC with wild-type E. coli A-1261 (setting [2]) turned out to be 16 µg/mL; in the assay on wild-type E. coli A-1261 (setting [3]) it was 1 µg/mL; in the assay on wild-type E. coli A-1261 (setting [4]), 16 µg/mL.
With `CN(C)CC(=O)OCC1(c2ccc(C#Cc3ccc4c(cnn4CC[C@](C)(C(=O)NO)S(C)(=O)=O)c3)cc2)CC1.O=CO` [Example 49, (R)-(1-(4-((1-(4-(hydroxyamino)-3-methyl-3-(methylsulfonyl)-4-oxobutyl)-1H-indazol-5-yl)ethynyl)phenyl)cyclopropyl)methyl dimethylglycinate formate], the MIC stood at 1 µg/mL in the assay on wild-type E. coli A-1261 (setting [2]); 1 µg/mL in the assay on wild-type E. coli A-1261 (setting [3]); 0.125 µg/mL with wild-type E. coli A-1261 (setting [4]); 2 µg/mL in assay [1]; 1 µg/mL against E. coli ATCC25922; 16 µg/mL against P. aeruginosa ATCC27853. Also, the MIC against K. pneumoniae A-651 was 2 µg/mL.
With `C[C@@](CCn1ncc2cc(C#CC#CC[C@@H](O)CO)ccc21)(C(=O)NO)S(C)(=O)=O` [Example 50, (R)-4-(5-((R)-6,7-dihydroxyhepta-1,3-diyn-1-yl)-1H-indazol-1-yl)-N-hydroxy-2-methyl-2-(methylsulfonyl)butanamide], the MIC is 32 µg/mL (≈ 73.8 µM) in assay [1], 4 µg/mL (≈ 9.23 µM) against E. coli ATCC25922, 2 µg/mL (≈ 4.61 µM) in the assay with P. aeruginosa ATCC27853 and 4 µg/mL (≈ 9.23 µM) in the assay with K. pneumoniae A-651.
As to `C[C@@](CCn1ncc2cc(C#CC#C[C@@H]3C[C@@H](O)[C@@H](O)C3)ccc21)(C(=O)NO)S(C)(=O)=O` [Example 51, (R)-4-(5-(((1s,3R,4S)-3,4-dihydroxycyclopentyl)buta-1,3-diyn-1-yl)-1H-indazol-1-yl)-N-hydroxy-2-methyl-2-(methylsulfonyl)butanamide], in assay [1], the “MIC for A. Baumannii T6474” value worked out at 4 µg/mL. Also, the “MIC for E. coli ATCC25922” value against E. coli ATCC25922 amounted to 0.5 µg/mL. Further, in the assay with P. aeruginosa ATCC27853, the “MIC for P. aeruginosa ATCC27853” value is 1 µg/mL. Also, in the assay on K. pneumoniae A-651, the “MIC for K. Pneumoniae A-651” value amounted to 1 µg/mL.
`C[C@@](CCn1ncc2cc(C#Cc3ccc(C4(CO)CC4)cc3)ccc21)(C(=O)NO)S(C)(=O)=O` [Example 52, (R)—N-hydroxy-4-(5-((4-(1-(hydroxymethyl)cyclopropyl)phenyl)ethynyl)-1H-indazol-1-yl)-2-methyl-2-(methylsulfonyl)butanamide]: the MIC was 0.125 µg/mL (≈ 0.26 µM) in assay [1], at most 0.063 µg/mL against E. coli ATCC25922, 2 µg/mL (≈ 4.15 µM) against P. aeruginosa ATCC27853 and 0.25 µg/mL (≈ 0.519 µM) in the assay on K. pneumoniae A-651.
As for `C[C@@](CCn1ncc2cc(C#CC#CC34CC(CO)(C3)C4)ccc21)(C(=O)NO)S(C)(=O)=O` [Example 53, (R)—N-hydroxy-4-(5-((3-(hydroxymethyl)bicyclo[1.1.1]pentan-1-yl)buta-1,3-diyn-1-yl)-1H-indazol-1-yl)-2-methyl-2-(methylsulfonyl)butanamide], the MIC in assay [1] was determined as 1 µg/mL (≈ 2.2 µM); in the assay with E. coli ATCC25922, 0.125 µg/mL (≈ 0.274 µM); against P. aeruginosa ATCC27853 it was 1 µg/mL (≈ 2.2 µM); in the assay on K. pneumoniae A-651, 0.25 µg/mL (≈ 0.549 µM).
Turning to `C[C@@](CCn1ncc2cc(C#CC#CC3(CN)CC3)ccc21)(C(=O)NO)S(C)(=O)=O` [Example 54, (R)-4-(5-((1-(aminomethyl)cyclopropyl)buta-1,3-diyn-1-yl)-1H-indazol-1-yl)-N-hydroxy-2-methyl-2-(methylsulfonyl)butanamide], the MIC is above 32 µg/mL in assay [1], 8 µg/mL (≈ 18.7 µM) against E. coli ATCC25922, 8 µg/mL (≈ 18.7 µM) against P. aeruginosa ATCC27853 and 16 µg/mL (≈ 37.3 µM) in the assay with K. pneumoniae A-651.
With “(R)—N-hydroxy-4-(5-((3-hydroxythietan-3-yl)buta-1,3-diyn-1-yl)-1H-indol-1-yl)-2-methyl-2-(methylsulfonyl)butanamide [Example 32]”, the “MIC for A. Baumannii T6474” value in assay [1] worked out at 16 µg/mL. Besides, in the assay with E. coli ATCC25922, the “MIC for E. coli ATCC25922” value came to 0.125 µg/mL. Also, the “MIC for P. aeruginosa ATCC27853” value with P. aeruginosa ATCC27853 came to 2 µg/mL. In addition, the “MIC for K. Pneumoniae A-651” value with K. pneumoniae A-651 was 0.25 µg/mL.

For the origin of these results see patent US9624206B2, “Antibacterial 1H-indazole and 1H-indole derivatives” (priority 2013, dated 2017).
